{
  "source": "patent US20170042890A1",
  "about": "“METHODS OF REDUCING DECLINE IN VITAL CAPACITY” (Cytokinetics, Inc., priority 2014, published 2017)",
  "key": {"patients with ALS [1]": {"test_system": "patients with ALS", "experiment": "BENEFIT-ALS clinical trial: ALSFRS-R total score", "type": "in vivo, human", "settings": "Modified FAS", "protocol": "(§1) BENEFIT-ALS was a multi-national, randomized, stratified, double-blind, placebo-controlled, parallel-group study of tirasemtiv in patients with ALS. The study consisted of a screening period, an open-label/lead-in period, and a double-blind treatment period. Following screening, eligible patients received open-label tirasemtiv, 125 mg BID, for 7 days. Patients who tolerated the 7-day lead-in period were randomized in a 1:1 ratio to tirasemtiv or placebo. Over the first 3 weeks of double-blind treatment, patients randomized to tirasemtiv had their TDD up-titrated as follows: 250 mg for 7 days, then 375 mg for 7 days, then 500 mg for 7 days. […] However, in such cases, dose escalation was re-attempted at least one additional time. The highest tolerable tirasemtiv dose for each individual patient was the dose that patient received for the remaining 9 weeks (i.e., the maximum tolerated dose [MTD] phase) of the study. Patients randomized to placebo underwent a corresponding dummy dose titration.\nRandomization was stratified by riluzole use. […] Clinical assessments occurred every 4 weeks during double-blind treatment; patients also returned for follow-up evaluations at 1 and 4 weeks after their final dose of double-blind study medication (FIG. 1). […]\nEligible patients were males and females, 18 years of age and older, with a diagnosis of familial or sporadic ALS and meeting the World Federation of Neurology El Escorial criteria of definite ALS, probable ALS, laboratory-supported probable ALS, or possible ALS. Patients were to have an upright SVC>50% of predicted for age, height, and sex, a diminished, but measurable, maximum voluntary grip strength in at least one hand (i.e., between 10-50 pounds for females and 10-70 pounds for males), and at least 4 of the 12 ALSFRS-R questions were to have been scored as a 2 or 3. […]\nSafety data presented were based on the safety analysis set, defined as all patients who received at least 1 dose of double-blind study drug. […] Data for the primary and secondary efficacy endpoints were analyzed with the Modified FAS. […]"}, "patients with ALS [2]": {"test_system": "patients with ALS", "experiment": "BENEFIT-ALS clinical trial: slow vital capacity (SVC)", "type": "in vivo, human", "protocol": "as §1\nRandomization was stratified by riluzole use. […] Clinical assessments occurred every 4 weeks during double-blind treatment; patients also returned for follow-up evaluations at 1 and 4 weeks after their final dose of double-blind study medication (FIG. 1).\nThe secondary objectives included assessments of the effect of tirasemtiv versus placebo on measures of respiratory function (Maximum Voluntary Ventilation (MVV), Sniff Nasal Inspiratory Pressure (SNIP), SVC) and skeletal muscle function including handgrip fatigue and muscle-strength mega-score (i.e., the average z-score for muscle strength measurements across the following tested bilateral muscle groups: elbow flexion, wrist extension, knee extension, ankle dorsiflexion, and handgrip)). Secondary endpoints included the changes from baseline in each of the above mentioned measures (MVV, SNIP, SVC, and muscle-strength mega-score) for the Modified FAS, and the slope of each of the measures from baseline to Week 12 for the Modified FAS.\nEligible patients were males and females, 18 years of age and older, with a diagnosis of familial or sporadic ALS and meeting the World Federation of Neurology El Escorial criteria of definite ALS, probable ALS, laboratory-supported probable ALS, or possible ALS. Patients were to have an upright SVC>50% of predicted for age, height, and sex, a diminished, but measurable, maximum voluntary grip strength in at least one hand (i.e., between 10-50 pounds for females and 10-70 pounds for males), and at least 4 of the 12 ALSFRS-R questions were to have been scored as a 2 or 3. Patients were to be able to swallow tablets without crushing, and in the opinion of the investigator, were expected to do so for the duration of the study. If the patient needed a caregiver, the caregiver was to be able to observe the patient's status. Clinical laboratory results were to be either within their respective normal ranges or if outside the normal range, deemed not clinically significant by the investigator. […] Patients not taking riluzole prior to study entry were not permitted to take riluzole at any dose during the course of the study.\nSafety data presented were based on the safety analysis set, defined as all patients who received at least 1 dose of double-blind study drug. Of the 605 randomized patients, 596 (295 placebo, 301 tirasemtiv) received at least 1 dose of double-blind study drug and were included in the safety analysis set. Data for the primary and secondary efficacy endpoints were analyzed with the Modified FAS. This analysis set included all patients who received at least 1 dose of double-blind study drug and had at least 1 efficacy assessment during the double-blind treatment period, and excluded 156 patients who were randomized in blocks containing patients affected by a study drug assignment error in which 58 patients randomized to and treated with double-blind tirasemtiv were dispensed double-blind placebo instead. […]"}, "[3]": {"experiment": "BENEFIT-ALS clinical trial: body weight", "type": "in vivo", "settings": "N=178", "protocol": "as §1\nSafety data presented were based on the safety analysis set, defined as all patients who received at least 1 dose of double-blind study drug. Of the 605 randomized patients, 596 (295 placebo, 301 tirasemtiv) received at least 1 dose of double-blind study drug and were included in the safety analysis set. Data for the primary and secondary efficacy endpoints were analyzed with the Modified FAS. This analysis set included all patients who received at least 1 dose of double-blind study drug and had at least 1 efficacy assessment during the double-blind treatment period, and excluded 156 patients who were randomized in blocks containing patients affected by a study drug assignment error in which 58 patients randomized to and treated with double-blind tirasemtiv were dispensed double-blind placebo instead. Based on these criteria, the Modified FAS consisted of 388 patients (210 placebo, 178 tirasemtiv)."}, "CYP 1A2": {"target": "T1, CYP 1A2 (Homo sapiens, UniProt P05177)", "T1 sequence (P05177 1-516)": "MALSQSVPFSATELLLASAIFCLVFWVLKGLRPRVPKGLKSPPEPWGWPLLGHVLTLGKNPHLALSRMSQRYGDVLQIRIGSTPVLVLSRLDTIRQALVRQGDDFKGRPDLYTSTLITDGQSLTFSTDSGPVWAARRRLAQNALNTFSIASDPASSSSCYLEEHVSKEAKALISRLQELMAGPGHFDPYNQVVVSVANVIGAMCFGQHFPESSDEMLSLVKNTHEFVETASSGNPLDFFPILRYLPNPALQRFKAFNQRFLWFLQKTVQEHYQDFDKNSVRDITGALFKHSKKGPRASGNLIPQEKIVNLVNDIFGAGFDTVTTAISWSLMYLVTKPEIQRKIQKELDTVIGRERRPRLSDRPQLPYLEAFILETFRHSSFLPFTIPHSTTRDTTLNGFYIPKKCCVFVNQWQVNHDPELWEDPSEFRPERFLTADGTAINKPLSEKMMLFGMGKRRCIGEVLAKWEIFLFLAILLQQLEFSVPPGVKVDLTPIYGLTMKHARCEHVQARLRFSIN", "settings": "cited from earlier work"}, "[4]": {"test_system": "slow skeletal muscle troponin", "settings": "cited from earlier work"}},
  "data": [
    {"smiles": "C#Cc1cnc2nc(O)n(C(CC)CC)c2n1", "note": "[Tirasemtiv, 6-ethynyl-1-(pentan-3-yl)-1H-imidazo[4,5-b]pyrazin-2(3H)one]", "values": [
      {"measurement": "ALSFRS total score change versus placebo, in words", "setting": "patients with ALS [1]; Visits 6 and 7", "value": "not statistically different between treatment groups"},
      {"measurement": "LS mean±SE difference between treatment groups (tirasemtiv response minus placebo response) in ALSFRS total score change", "setting": "patients with ALS [1]; Visits 6 and 7, 95% CI −1.30, 0.14, p=0.114", "value": "−0.58±0.366"},
      {"measurement": "LS mean change from baseline to the average of ALSFRS total score at Visits 6 and 7", "setting": "patients with ALS [1]; after approx. 8 and 12 weeks double-blind, tirasemtiv BID up to 500 mg/day", "value": "−2.98"},
      {"measurement": "SVC slope of changes from baseline to Week 12", "setting": "patients with ALS [2]; Modified FAS N=178", "value": "−0.0394"},
      {"measurement": "SVC change from baseline (LS mean)", "setting": "patients with ALS [2]; Week 4, Modified FAS N=178", "value": "−0.99", "unit": "% predicted"},
      {"measurement": "SVC change from baseline (LS mean)", "setting": "patients with ALS [2]; Week 8, Modified FAS N=178", "value": "−2.85", "unit": "% predicted"},
      {"measurement": "SVC change from baseline (LS mean)", "setting": "patients with ALS [2]; Week 12, Modified FAS N=178", "value": "−3.12", "unit": "% predicted"},
      {"measurement": "SVC change from baseline (LS mean), post-treatment", "setting": "patients with ALS [2]; Week 13, 1 week after last dose of double-blind study drug", "value": "−3.75", "unit": "% predicted"},
      {"measurement": "SVC change from baseline (LS mean), post-treatment", "setting": "patients with ALS [2]; Week 16, 4 weeks after last dose of double-blind study drug", "value": "−5.39", "unit": "% predicted"},
      {"measurement": "LS mean±SE change from baseline in SVC", "setting": "patients with ALS [2]; after 12 weeks of treatment", "value": "−3.12", "unit": "%"},
      {"measurement": "SVC difference in slope (tirasemtiv vs placebo)", "setting": "patients with ALS [2]; baseline to Week 12, p=0.0006", "value": 0.051},
      {"measurement": "Treatment difference in change from baseline to average SVC after 8 and 12 weeks", "setting": "patients with ALS [2]; subgroup: baseline SVC>median at baseline, p<0.0001", "value": 6.02, "unit": "%"},
      {"measurement": "Treatment difference in change from baseline to average SVC after 8 and 12 weeks", "setting": "patients with ALS [2]; subgroup: females, p=0.012", "value": 6.84, "unit": "%"},
      {"measurement": "Treatment difference in change from baseline to average SVC after 8 and 12 weeks", "setting": "patients with ALS [2]; subgroup: non-riluzole users, p=0.0005", "value": 6.55, "unit": "%"},
      {"measurement": "Effect on decline of SVC, in words", "setting": "patients with ALS [2]; versus placebo", "value": "statistically significant and potentially clinically meaningful reduction in the decline of SVC"},
      {"measurement": "Weight change from baseline, LS mean", "setting": "[3]; Week 4", "value": -0.83, "unit": "kg"},
      {"measurement": "Weight change from baseline, LS mean", "setting": "[3]; Week 8", "value": -1.30, "unit": "kg"},
      {"measurement": "Weight change from baseline, LS mean", "setting": "[3]; Week 12", "value": -1.70, "unit": "kg"},
      {"measurement": "Effect on CYP 1A2", "setting": "CYP 1A2", "value": "inhibited"},
      {"measurement": "Effect on slow skeletal muscle troponin", "setting": "[4]", "value": "little effect"}
    ]}
  ]
}
